For assay [1], the system named is Nippostrongylus brasiliensis. The assay is described as follows: In vitro assay 2: Nippostrongylus brasiliensis (NIPOBR), acetylcholine esterase readout. To be noted: read-out: activity (reduction of AChE compared to negative control); for inhibition at 1 µg/mL: 1 μg/ml; for inhibition at 10 µg/mL: 10 μg/ml. The gist of the method:
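Adult worms, washed in saline with antibiotics/antimycotic, were incubated in medium with compound (DMSO stock) at 10 μg/ml (10 ppm) or 1 μg/ml (1 ppm). Acetylcholine esterase activity in a medium aliquot was measured against a negative control as the anthelmintic readout.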

Assay [2] concerns Dirofilaria immitis microfilariae. Nature of the assay: In vitro assay 3: Dirofilaria immitis microfilariae (DIROIM L1), motility. To be noted: 72 h, read-out: EC50 (reduction of motility), 72 h incubation.
Assay [3] concerns Dirofilaria immitis third-stage larvae. The assay is described as follows: In vitro assay 4: Dirofilaria immitis (DIROIM L4), motility. To be noted: 72 h, read-out: EC50 (reduction of motility).
In assay [4] the test system is Cooperia curticei. Conditions: Cooperia curticei, 120 h, read-out: activity (larval mortality).
Description: In Vitro Assay 6: Cooperia curticei (COOPCU L3)
Solvent: dimethyl sulfoxide
Approximately 40 nematode larvae (Cooperia curticei) are transferred into a test tube containing the compound solution.
After 5 days percentage of larval mortality is recorded. 100% efficacy means all larvae are killed; 0% efficacy means no larvae are killed.
For assay [5], the system named is Haemonchus contortus. Conditions: 120 h, read-out: activity (larval mortality).
Description: In Vitro Assay 7: Haemonchus contortus (HAEMCO L3)
Solvent: dimethyl sulfoxide
Approximately 40 larvae of the red stomach worm (Haemonchus contortus) are transferred into a test tube containing compound solution.
After 5 days the percentage of larval mortality is recorded. 100% efficacy means all larvae are killed, 0% efficacy means no larvae are killed.
Assay [6] addresses C. elegans Slo-1a (Caenorhabditis elegans, UniProt Q95V25). Conditions: pE50 (negative decadic logarithm of EC50), CHO cells expressing C. elegans Slo-1a, voltage sensitive dye.

Some results are limits rather than exact numbers.

A word on the EC50: it is the midpoint of the concentration-response curve. A word on the mortality: it is the share of the test organisms that died.

Sequence of C. elegans Slo-1a (Q95V25 whole entry): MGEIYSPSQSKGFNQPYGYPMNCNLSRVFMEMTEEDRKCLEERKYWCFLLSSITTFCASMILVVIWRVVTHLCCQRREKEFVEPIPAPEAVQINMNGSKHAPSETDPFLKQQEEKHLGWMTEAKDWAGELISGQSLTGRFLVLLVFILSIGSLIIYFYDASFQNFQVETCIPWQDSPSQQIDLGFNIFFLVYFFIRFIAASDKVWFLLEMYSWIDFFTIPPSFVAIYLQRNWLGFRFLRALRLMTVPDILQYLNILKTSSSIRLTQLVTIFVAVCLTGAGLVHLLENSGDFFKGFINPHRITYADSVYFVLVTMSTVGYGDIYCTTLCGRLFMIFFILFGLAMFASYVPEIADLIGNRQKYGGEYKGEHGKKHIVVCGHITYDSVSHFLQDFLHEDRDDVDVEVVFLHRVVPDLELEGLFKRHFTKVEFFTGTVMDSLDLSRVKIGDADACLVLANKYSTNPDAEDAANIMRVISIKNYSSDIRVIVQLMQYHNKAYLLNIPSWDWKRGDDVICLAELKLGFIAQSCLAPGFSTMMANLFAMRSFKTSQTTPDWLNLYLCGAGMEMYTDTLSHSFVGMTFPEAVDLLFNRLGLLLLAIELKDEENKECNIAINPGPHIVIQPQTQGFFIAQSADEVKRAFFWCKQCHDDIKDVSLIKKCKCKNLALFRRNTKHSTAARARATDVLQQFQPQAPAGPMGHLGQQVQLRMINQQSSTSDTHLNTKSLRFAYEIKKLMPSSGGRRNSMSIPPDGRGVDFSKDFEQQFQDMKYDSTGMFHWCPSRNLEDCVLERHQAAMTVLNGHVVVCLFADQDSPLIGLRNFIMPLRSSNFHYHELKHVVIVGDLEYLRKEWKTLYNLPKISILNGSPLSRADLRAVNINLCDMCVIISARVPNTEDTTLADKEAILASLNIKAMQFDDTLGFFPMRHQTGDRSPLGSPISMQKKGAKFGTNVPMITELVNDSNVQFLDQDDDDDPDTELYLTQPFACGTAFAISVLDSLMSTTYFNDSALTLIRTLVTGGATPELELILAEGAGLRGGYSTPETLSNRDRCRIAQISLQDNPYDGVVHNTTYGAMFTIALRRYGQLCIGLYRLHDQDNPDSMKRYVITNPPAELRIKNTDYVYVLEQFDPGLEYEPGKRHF

`Cc1cc(Cl)cc(-c2cccc3c(N4CCC(O)C4)c(C(=O)N[C@H]4CCOc5ccccc54)cnc23)c1F` (mixture of isomers) [Example 272]: the inhibition at 1 µg/mL in assay [1] was above 80%. Besides, the figures for the concentration for a half-maximal effect (EC50) in assay [2], in assay [3] and in assay [6] were below 0.1 µg/mL, below 0.1 µg/mL and below 3.16 nM, respectively. Also, the mortality at 20 ppm in assay [4] came out at 80%; in assay [5], 90%. Also, the mortality at 4 ppm in assay [5] is 90%.

For the compound `CN(C)c1c(C(=O)N[C@H]2CCOc3ccccc32)cnc2c(-c3cc(F)c(F)c(F)c3)cccc12` [Example 47], in assay [1], the inhibition at 1 µg/mL is above 80%. In assay [1], the inhibition at 10 µg/mL was above 80%. The results for the EC50 in assay [2], in assay [3] and in assay [6] were below 0.1 µg/mL, below 0.1 µg/mL and below 3.16 nM, respectively. The mortality at 4 ppm turned out to be 80% in assay [4] and 90% in assay [5]. Further, the values for the mortality at 20 ppm in assay [4] and in assay [5] were 80% and 100%, respectively.

As for `CN(C)c1c(C(=O)N[C@H]2CCOc3ccccc32)cnc2c(-c3cccc(C(F)(F)F)c3F)cccc12` [Example 50], in assay [1], the inhibition at 1 µg/mL was above 80%. Moreover, the inhibition at 10 µg/mL in assay [1] was above 80%. Moreover, the EC50 was below 0.1 µg/mL in assay [2], below 0.1 µg/mL in assay [3] and below 3.16 nM in assay [6]. Moreover, the mortality at 4 ppm in assay [4] was 80%; in assay [5] it was 90%. Moreover, the mortality at 20 ppm in assay [4] was 90%; in assay [5] it was 100%.

As to `O=C(N[C@H]1CCOc2ccccc21)c1cnc2c(-c3cc(Cl)ccc3F)c(F)ccc2c1N1CCOCC1` [Example 170], the inhibition at 1 µg/mL in assay [1] was above 80%. For the same compound, the EC50 in assay [2] is below 0.1 µg/mL; in assay [3], below 0.1 µg/mL; in assay [6], below 3.16 nM. Also, the mortality at 4 ppm in assay [4] and in assay [5] was 100% throughout. Besides, the mortality at 20 ppm in assay [4] and in assay [5] was 100% each time.

In the case of `CN(C)c1c(C(=O)N[C@H]2CCOc3ccccc32)cnc2c(-c3ccc(F)cc3Cl)c(F)ccc12` [Example 172], the inhibition at 1 µg/mL in assay [1] was above 80%. Moreover, the figures for the EC50 in assay [2], in assay [3] and in assay [6] were below 0.1 µg/mL, below 0.1 µg/mL and below 3.16 nM, respectively. For the same compound, the mortality at 4 ppm worked out at 100% in assay [4] and 80% in assay [5]. Also, the mortality at 20 ppm in assay [4] and in assay [5] was 100% throughout.

For the compound `O=C(N[C@H]1CCOc2ccccc21)c1cnc2c(-c3cccc4c3OCC4)cccc2c1N1CCOCC1` [Example 204], the inhibition at 1 µg/mL in assay [1] is above 80%. In addition, the EC50 in assay [2] was below 0.1 µg/mL; in assay [3] it was below 0.1 µg/mL; in assay [6], 3.16 to 31.6 nM. In addition, the mortality at 20 ppm came out at 100% in assay [4] and 90% in assay [5].

In the case of `O=C(N[C@H]1CCOc2ccccc21)c1cnc2c(-c3cc(Cl)ccc3F)cccc2c1N1CCOCC1` [Example 221], the inhibition at 1 µg/mL in assay [1] is above 80%. Also, the EC50 in assay [2] is below 0.1 µg/mL; in assay [3] it was below 0.1 µg/mL; in assay [6], below 3.16 nM. The mortality at 4 ppm in assay [4] and in assay [5] was 90% each time. Besides, the mortality at 20 ppm in assay [4] and in assay [5] was 100% each time.

Consider `O=C(N[C@H]1CCOc2ccccc21)c1cnc2c(-c3cccc(Cl)c3F)cccc2c1N1CCOCC1` [Example 226], for which, in assay [1], the inhibition at 1 µg/mL is above 80%. Moreover, the EC50 was below 0.1 µg/mL in assay [2], below 0.1 µg/mL in assay [3] and below 3.16 nM in assay [6]. Besides, the figures for the mortality at 4 ppm in assay [4] and in assay [5] were 100% and 90%, respectively. Also, the mortality at 20 ppm in assay [4] and in assay [5] was 100% in each case.

Regarding `O=C(N[C@H]1CCOc2ccccc21)c1cnc2c(-c3cc(Cl)cc(C(F)(F)F)c3)cccc2c1N1CCOCC1` [Example 235], the inhibition at 1 µg/mL in assay [1] was above 80%. In addition, the EC50 in assay [2] is below 0.1 µg/mL; in assay [3], below 0.1 µg/mL; in assay [6] it was below 3.16 nM. Also, the mortality at 4 ppm in assay [4] and in assay [5] was 90% each time. For the same compound, the mortality at 20 ppm in assay [4] and in assay [5] was 100% each time.

`COC(=O)[C@H]1CCN(c2c(C(=O)N[C@H]3CCOc4ccccc43)cnc3c(-c4cc(Cl)cc(Cl)c4)cccc23)C1` [Example 281]: the inhibition at 1 µg/mL in assay [1] was above 80%. In addition, the EC50 in assay [2] is below 0.1 µg/mL; in assay [3], below 0.1 µg/mL; in assay [6], below 3.16 nM. For the same compound, the mortality at 4 ppm in assay [4] and in assay [5] was 80% each time. In addition, the mortality at 20 ppm in assay [4] was 90%; in assay [5], 80%.

As for `CN(C)c1c(C(=O)N[C@H]2CCOc3ccccc32)cnc2c(-c3cccc(Cl)c3Cl)c(F)ccc12` [Example 330], the inhibition at 1 µg/mL in assay [1] is above 80%. For the same compound, the EC50 in assay [2] is below 0.1 µg/mL; in assay [3], below 0.1 µg/mL; in assay [6] it was below 3.16 nM. For the same compound, the figures for the mortality at 4 ppm in assay [4] and in assay [5] were 90% and 100%, respectively. The values for the mortality at 20 ppm in assay [4] and in assay [5] were 90% and 100%, respectively.

Consider `O=C(N[C@H]1CCOc2ccccc21)c1cnc2c(-c3cc(Cl)cc(Cl)c3)cccc2c1N1CC[C@@H](C(=O)O)C1` [Example 332], for which the inhibition at 1 µg/mL in assay [1] was above 80%. In addition, the half-maximal effective concentration (EC50) in assay [2] was below 0.1 µg/mL; in assay [3], below 0.1 µg/mL; in assay [6], below 3.16 nM. For the same compound, the mortality at 4 ppm in assay [4] and in assay [5] was 100% throughout. For the same compound, the mortality at 20 ppm in assay [4] and in assay [5] was 100% throughout.

For `CC(C)c1c(C(=O)N[C@H]2CCOc3ccccc32)cnc2c(-c3cc(Cl)cc(Cl)c3)cccc12` [Example 359, 8-(3,5-dichlorophenyl)-N-[(4S)-3,4-dihydro-2H-chromen-4-yl]-4-isopropyl-quinoline-3-carboxamide], the inhibition at 1 µg/mL in assay [1] was above 80%. In addition, the half-maximal effective concentration (EC50) in assay [2] was below 0.1 µg/mL; in assay [3] it was below 0.1 µg/mL; in assay [6] it was below 3.16 nM. Moreover, the mortality at 4 ppm in assay [4] and in assay [5] was 100% each time. The mortality at 20 ppm in assay [4] and in assay [5] was 100% each time.

For the compound `CC(C)c1c(C(=O)N[C@H]2CCOc3ccccc32)cnc2c(-c3cccc(C(F)(F)F)c3F)cccc12` [Example 408], the inhibition at 1 µg/mL in assay [1] is above 80%. Also, the EC50 in assay [2] is below 0.1 µg/mL; in assay [3], below 0.1 µg/mL; in assay [6], below 3.16 nM. Besides, the mortality at 4 ppm in assay [4] worked out at 100%; in assay [5], 90%. Besides, the mortality at 20 ppm in assay [4] came to 100%; in assay [5] it was 90%.

With `CC(C)c1c(C(=O)N[C@H]2CCOc3ccccc32)cnc2c(-c3cccc(C(F)(F)F)c3)cccc12` [Example 411], the inhibition at 1 µg/mL in assay [1] was above 80%. The EC50 was below 0.1 µg/mL in assay [2], below 0.1 µg/mL in assay [3] and below 3.16 nM in assay [6]. For the same compound, the mortality at 4 ppm in assay [4] and in assay [5] was 100% in each case. Besides, the mortality at 20 ppm in assay [4] and in assay [5] was 100% in each case.

Take `CN(C)c1c(C(=O)N[C@H]2CCOc3ccccc32)cnc2c(-c3cc(Cl)ncc3Cl)cccc12` [Example 415]: in assay [1], the inhibition at 1 µg/mL is above 80%. For the same compound, the results for the EC50 in assay [2], in assay [3] and in assay [6] were below 0.1 µg/mL, below 0.1 µg/mL and below 3.16 nM, respectively. Moreover, the mortality at 4 ppm turned out to be 100% in assay [4] and 90% in assay [5]. Moreover, the mortality at 20 ppm in assay [4] and in assay [5] was 100% throughout.
